Measured values from patent publication US5308843A, “Method of inhibiting mammalian topoisomerase II and malignant cell growth in mammals, with substituted (S)-3-methyl-7-oxo-2,3-dihydro-7H-pyrido[1,2,3-de][1,4 ]-benzoxazine(and-benzothiazine)-6-carboxylic acids” (Sterling Drug Inc., priority 1990, dated 1994).

Target: T1, human topoisomerase II (Homo sapiens, UniProt P11388)
T1 construct: Topo II was purified from late log phase suspension cultures of HeLa WIS; endogenous in cells; host or cells: HeLa WIS (late log phase suspension cultures); native enzyme purified in house
Assay: Mammalian (human) topoisomerase II inhibition assay: topo II-DNA complex stabilisation
Assay type: biochemical
Details: concentration with activity equal to the EC50 of reference mAMSA; 20 min at 37° C.
From the text: Mammalian Topoisomerase II Inhibition Assay Procedure
The inhibition of human topoisomerase II (hereafter topo II) was quantitated by a procedure adapted from that described by Trask et al., EMBO J., 3, 671-676 (1984). The assay quantitates the amount of topo II covalently complexed by DNA at equilibrium during a topo II reaction. This assay determines the potential of a compound to stabilize this complex, which potential is closely related to the cytotoxicity of the compound.
Topo II was purified from late log phase suspension cultures of HeLa WIS by an adaption of the method described by Per et al., Mol. Pharmacol., 32, 17-25 (1987).
Assays (in duplicate) were assembled at 4° C. Assay mix (25 μl) was distributed in Beckman (No. 265270) 1.5 ml microtitre tubes followed by the addition of 5 μl test compound to yield the final concentrations of assay components:
4 ng 3' end labeled (32p) pBR322 DNA (10^7 DPM/μg)
The assay mix including the test compound was incubated for 20 minutes at 37° C. The reaction was terminated at 37° C. by the addition of 3 μl 10% SDS followed by the addition of 266 μl 10 mM Tris-Cl pH 7.5, 20 μg/ml BSA, 20 μg/ml calf thymus DNA, 1% SDS.
A SDS/protein precipitate was formed by the addition of 28 μl 2.5M KCl followed by chilling on ice for a minimum of 10 minutes. The precipitate was collected and washed with a Brandell cell harvester on a GFB glass fiber filter membrane as follows. The contents of the assay tube were drawn up into the harvester. The tube was then rinsed 7× with 10 mM Tris-Cl pH 7.5, 1 mM EDTA and 100 mM KCl. The precipitate was washed with 1 L of a solution of 10 mM Tris-Cl pH 7.5, 1 mM EDTA, 100 mM KCl followed by 1 L of 95% ethyl alcohol and finally 0.5 L 70% of ethyl alcohol (per 48 samples in each case). After drying, CPM was determined by liquid scintillation counting with 5 ml Biofluor (NEN Research Products) or Readisafe (Beckman Instruments Inc.) cocktail.
Preparation of test compound--A stock solution (6 mg/ml) of test compound was prepared either in 0.1N sodium hydroxide or 0.2N hydrogen chloride. This solution then was diluted 1/5 into water and serially thereafter in either 0.02N sodium hydroxide or 0.04N hydrogen chloride, respectively. The stock solution and serial dilution of the test compound was stored at -20° C. prior to testing.
Screening of test compound--As an initial screen, the test compound was tested at a final concentration of 2, 20 and 200 μg/ml.
Controls--A solvent control which indicates the base level of topo II-DNA complex formed in the absence of the test compound was included in each test. A control, in which topo II was omitted, was included for each test compound at the highest drug concentration tested.
Reference agent--A dose response curve with mAMSA at 0.01, 0.08, 0.16, 0.32, 1.0 and 10 μg/ml was included in each test.
Data reduction--The EC50 (effective concentration at which 50% of the maximal DNA-topo II complex is formed) of a test compound is defined to be the concentration with activity equal to the EC50 of the reference agent, mAMSA. The maximal DNA-topo II complex formed is taken as that equal to that formed at the nearly saturating dose of mAMSA (10 μg/ml).

T1 sequence (P11388 whole entry): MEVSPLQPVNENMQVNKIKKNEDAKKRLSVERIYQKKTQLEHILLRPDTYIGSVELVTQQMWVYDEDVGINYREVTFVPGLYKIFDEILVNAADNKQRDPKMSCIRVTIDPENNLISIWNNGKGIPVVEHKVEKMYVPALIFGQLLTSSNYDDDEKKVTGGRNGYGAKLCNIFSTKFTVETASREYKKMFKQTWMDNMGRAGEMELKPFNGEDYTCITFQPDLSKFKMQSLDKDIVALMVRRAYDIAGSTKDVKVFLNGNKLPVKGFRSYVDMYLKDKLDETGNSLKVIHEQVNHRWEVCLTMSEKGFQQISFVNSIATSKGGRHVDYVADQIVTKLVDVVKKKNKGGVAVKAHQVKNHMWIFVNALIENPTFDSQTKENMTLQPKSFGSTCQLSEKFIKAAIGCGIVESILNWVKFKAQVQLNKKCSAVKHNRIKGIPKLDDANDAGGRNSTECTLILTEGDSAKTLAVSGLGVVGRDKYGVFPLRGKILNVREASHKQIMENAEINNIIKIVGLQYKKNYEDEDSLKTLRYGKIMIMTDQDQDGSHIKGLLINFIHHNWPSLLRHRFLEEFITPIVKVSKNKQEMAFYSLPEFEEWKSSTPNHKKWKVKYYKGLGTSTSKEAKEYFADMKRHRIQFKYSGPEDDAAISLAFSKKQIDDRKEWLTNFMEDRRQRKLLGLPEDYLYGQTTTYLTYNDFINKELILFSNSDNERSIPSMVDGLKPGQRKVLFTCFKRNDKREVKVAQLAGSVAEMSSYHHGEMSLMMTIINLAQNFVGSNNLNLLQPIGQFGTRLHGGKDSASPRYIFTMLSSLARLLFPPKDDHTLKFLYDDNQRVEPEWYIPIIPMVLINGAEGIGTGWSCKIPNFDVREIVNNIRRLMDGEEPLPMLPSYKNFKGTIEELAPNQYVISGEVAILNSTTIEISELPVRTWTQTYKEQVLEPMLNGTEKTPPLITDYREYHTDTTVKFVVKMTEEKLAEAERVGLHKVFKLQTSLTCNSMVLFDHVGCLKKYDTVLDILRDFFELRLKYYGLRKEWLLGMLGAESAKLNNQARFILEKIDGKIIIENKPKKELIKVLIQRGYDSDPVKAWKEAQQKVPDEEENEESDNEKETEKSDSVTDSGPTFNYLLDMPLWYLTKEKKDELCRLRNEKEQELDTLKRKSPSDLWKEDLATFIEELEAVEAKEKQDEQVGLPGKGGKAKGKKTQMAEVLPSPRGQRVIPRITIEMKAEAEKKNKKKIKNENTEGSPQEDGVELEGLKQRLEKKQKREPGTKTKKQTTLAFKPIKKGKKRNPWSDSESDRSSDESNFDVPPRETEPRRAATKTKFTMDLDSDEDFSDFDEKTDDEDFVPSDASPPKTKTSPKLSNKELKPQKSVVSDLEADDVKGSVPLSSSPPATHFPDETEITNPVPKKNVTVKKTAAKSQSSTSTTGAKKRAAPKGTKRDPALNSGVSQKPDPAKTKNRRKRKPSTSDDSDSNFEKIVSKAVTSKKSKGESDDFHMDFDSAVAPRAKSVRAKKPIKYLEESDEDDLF

For `Cc1cc(-c2c(F)cc3c(=O)c(C(=O)O)cn4c3c2SC[C@@H]4C)cc(C)n1` [Example 5, (S)-10-(2,6-Dimethyl-4-pyridinyl)-9-fluoro-3-methyl-7-oxo-2,3-dihydro-7H-pyrido[1,2,3-de][1,4]benzothiazine-6-carboxylic acid], the EC50 was 9.4 µM.
